Source: BindingDB's records for doi:10.1021/jm00117a017 (Merck Sharp and Dohme Research Laboratories, 1988)

Molecular target: D-alanine--D-alanine ligase (Enterococcus faecalis)
Assay: Antibacterial activity against D-alanyl-D-alanine ligase from Streptococcus faecalis (ATCC 8043)

Structure (SMILES) | IC50 [µM]
CC(N)P(=O)(O)CC(Cc1ccccc1)C(=O)O (stereo not given) | 50
CCCCCCCC(C[PH](O)(O)C(C)=N)C(=O)O (stereo not given) | 200
C[C@H](N)P(=O)(O)O [1-Ammonium-ethanephosphonic acid anion] | 930
CC(=N)[PH](O)(O)CC(CC(C)C)C(=O)O (stereo not given) [2-[(1-Amino-ethyl)-hydroxy-phosphinoylmethyl]-4-methyl-pentanoic acid;hydrate] | 30
CC(=N)[PH](O)(O)CC(CCc1ccccc1)C(=O)O (stereo not given) [2-[(1-Amino-ethyl)-hydroxy-phosphinoylmethyl]-4-phenyl-butyric acid;hydrate] | 40
CC(N)P(=O)(O)CC(CCCc1ccccc1)C(=O)O (stereo not given) [2-[(1-Amino-ethyl)-hydroxy-phosphinoylmethyl]-5-phenyl-pentanoic acid;hydrate] | 50
CCC(C[PH](O)(O)C(C)=N)C(=O)O (stereo not given) [2-[(1-Amino-ethyl)-hydroxy-phosphinoylmethyl]-butyric acid;hydrate] | 45
CCCC(CP(=O)(O)C(C)N)C(=O)O (stereo not given) [2-[(1-Amino-ethyl)-hydroxy-phosphinoylmethyl]-pentanoic acid;hydrate] | 20
CCCCC(C[PH](O)(O)C(=N)CC)C(=O)O (stereo not given) [2-[(1-Amino-propyl)-hydroxy-phosphinoylmethyl]-hexanoic acid;hydrate] | 155

Molecular target: not listed separately
Assay: as above

Structure (SMILES) | IC50 [µM]
CCCCCCCC(C[PH](O)(O)C(C)=N)C(=O)O (stereo not given) | 12.5
